Laboratory results: patent publication US6143719A, “Bradykinin analogs as selective thrombin inhibitors” (The Regents of the University of Michigan, priority 1996, dated 2000)
Where two headings read alike, the source gives them in different places. Blank lines part the entries; values can stand above or below the compound they belong to. Ends that are not written are not given here.

Legend:
platelets = type: cell-based, human; details: for inhibition of aggregation / inhibition of secretion: peptide 1 mM
Method: Fresh whole blood was collected and mixed with 0.013 M sodium citrate and platelet-rich plasma was prepared according to the method of Meloni et al., J. Biol. Chem. 266, 6786, 1991. Washed platelets were prepared by gel filtration over Sepharose 2B columns in Hepes-Tyrode's buffer (0.137 M NaCl, 3 mM KCl, 0.4 mM Na H2 PO4, 12 mM NaHCO3, 1 mM MgCl2, 14.7 mM Hepes containing 20 mM glucose and 0.2% bovine serum albumin, pH 7.35). Platelets for aggregation and secretion studies were incubated according to the method of Schmaier et al., Blood 56, 1013, 1980 with 5-[^14 C]hydroxytryptamine for 30 min at 37° C. The washed platelets (2×10^8 /ml, final concentration radiolabeled with 5-[^14 C]hydroxytryptamine) were added to a cuvette of an aggregometer (Chronolog Corp., Havertown, Pa.), standardized using the protocol of Meloni et al., supra. After the addition of ZnCl2, final concentration 50 μM, purified HK (1 μM) or various concentrations of the peptides (0.1 to 3 mM) or buffer alone was added to the cuvette. Once the baseline stabilized, α-thrombin [0.125 U/ml (1 nM) final concentration] was then added to initiate platelet activation. Stirred platelets were allowed to incubate with o-thrombin and additions for 1 min. In other experiments, platelets were stimulated with TRAP (0.625 to 2.5 μM), ADP (1-5 μM)(Sigma), collagen (1.25 μg/ml) (Horm, Munich, Germany), or U-46619 (1 μM)(Calbiochem Behring, San Diego, Calif.). Additional experiments were performed with washed platelets stimulated with γ-thrombin (1 nM) in the presence of human fibrinogen (100 mg/dl). Both γ-thrombin and human fibrinogen were purchased from Enzyme Research Laboratories, South Bend, Ind. At the conclusion of the incubation, the entire platelet sample was centrifuged at 10,900 xg (Model E, Beckman Instruments, Palo Alto, Calif.) over a 0.135 mM formaldehyde, 5 mM EDTA solution (1 part of formaldehyde-EDTA to 4 parts of platelet suspension) and stored on ice until an aliquot of the supernatant was assayed for 5-[^14 C]hydroxytryptamine secretion. Percent secretion was determined by the ratio of the loss of 5-[^14 C]hydroxytryptamine in the supernatant of the agonist-treated specimen to the loss of 5-[^14 C]hydroxytryptamine in the supernatant of the platelet lysate after the value of the control supernatant (i.e., the level of 5-[^14 C]hydroxytryptamine in a unstimulated sample) was subtracted from both.

washed platelets = test: 125I-α-thrombin binding to platelets; parameters: species or system human; details: peptide 1 mM
Method: Gel filtered platelets were placed into polypropylene tubes and diluted with Hepes-Tyrode's buffer, containing 2 mM CaCl2 and 50 μM ZnCl2 and additions, to a final concentration of 2×10^8 platelets/ml. The reaction was started by the addition of 1 nM ^125 I-α-thrombin, which was prepared by using the iodogen technique as reported by Meloni et al., J. Biol. Chem. 266, 6786 (1991). Incubations were performed at 37° C. for specified times with various additions. After incubation, 50 μl aliquots were removed in triplicate for each experimental point and placed in polypropylene microcentrifuge tubes with an extended tip containing 200 μl of an oil mixture which consisted of 1 part Apiezon A oil to 9 parts of n-butylphthalate (Gustafson et al., J. Clin. Invest. 78, 810 (1986)), and centrifuged at room temperature for 2 min at 10,900× g in a microcentrifuge. (Model E, Beckman Instruments, Palo Alto, Calif.) The supernatant was removed and the tips amputated for placement in the gamma counter. The radioactivity present in the cell pellet was determined with an LKB Rack Gamma Counter (LKB Instruments, Inc., Gaithersburg, Md.). Nonspecific binding was measured in the presence of a 100-fold molar excess of α-thrombin.

[1] = rabbit clearance study (plasma antigen by ELISA); type: in vivo, New Zealand white rabbits
Method: (§1) Clearance studies have been performed in New Zealand white rabbits with BK analog SEQ ID NO:19. White rabbits weighing between 2.0 and 2.5 kg were premedicated according to the method of Michelson et al., J. Mol. Cell Cardiol. 20, 547 (1988) with 10 mg/kg 1 M xylazine and 10 mg/kg 1 M ketamine. After tracheostomy, intubation, and positive pressure ventilation done with room air (Harvard instruments), stage III surgical anesthesia was maintained with 20 mg/ml of intravenous pentobarbital. A carotid artery and a jugular vein were then exposed. A catheter was inserted into the exposed carotid artery for withdrawal of blood samples and monitoring the animal's blood pressure (Gould, Inc., Cardiovascular Products, Oxnard, Calif.). In a similar manner, a catheter was inserted into the exposed jugular vein for administering the anesthetic and BK analog SEQ ID NO:19.
(§2) For the clearance study, a single bolus of BK analog SEQ ID NO:19 was injected. The amount of BK analog SEQ ID NO:19 injected was calculated from the weight of the animal such that the blood volume was 1 mM with peptide. For example: for a 2.5 kg rabbit, 7% of its weight gives an estimated blood volume of 175 ml. Accordingly, 89 mg of BK analog was injected to make the 175 ml plasma sample 1 mM. Depending upon the size of the animal, 75 to 90 mg peptide was injected. Blood samples were collected at 2, 4, 6, 8, 10, 20, 30, 40, 60, 90, and 120 minute intervals after infusion into a 0.013 M sodium citrate anticoagulant solution. Plasma was prepared from each of the blood samples collected over time by centrifugation of the blood samples at 10,00 xg for two minutes. Aliquots of the plasmas were assayed for the presence of the BK analog SEQ ID NO:19 antigen by the ELISA technique using a MARKIT-M [1-5] BK assay from Dainippon Pharmaceutical Co., Ltd., Osaka, Japan.

[2] = observations in rabbits after bolus injection; type: in vivo, New Zealand white rabbits; details: single iv bolus
Method: as §1, §2

α-thrombin = α-thrombin (Homo sapiens, UniProt P00734); test: α-thrombin cleavage of thrombin receptor peptide NAT12 (HPLC); type: biochemical; details: peptide 1 mM, 8 nM α-thrombin
Method: A further study was performed to determine whether BK analogs prevent α-thrombin from cleaving the thrombin receptor reported by Vu et al., Cell 64, 1057 (1991). A peptide, NAT12 (SEQ ID NO:2), which spans amino acids […] of the α-thrombin cleavage site on the thrombin receptor, was used to determine whether the BK analogs described herein blocked α-thrombin cleavage of the cloned receptor.
The cleavage study was performed according to the method of Molino et al., J. Biol. Chem. 270,11168(1995),inwhichNAT12(SEQ ID NO:2) was dissolved in a solution of 0.01 M NaH2 PO4 and 0.15 M NaCl, pH 7.4. […] Following incubation, each mixture was separated by applying the mixture to a Vyadec C-18 HPLC column in 0.1% trifluoroacetic acid and eluting the mixture with a gradient from 0% to 100% of 80% MeCN and 0.1% trifluoroacetic acid. The size of the separated products were confirmed by mass spectrometry.

human platelets = type: cell-based
Method: The cytoplasmic free Ca^2+ concentration ([Ca^2+ ]i) was measured using the fluorescent Ca^2 + indicator fura-2 (Molecular Probes, Inc., Eugene, Oreg.). Gel filtered platelets in Hepes-Tyrode's buffer were loaded with fura-2 by incubation at 37° C. with 1 μM fura-2/acetoxymethyl ester for 45 min according to the method of Rasmussen et al., J. Biol. Chem. 268, 14322 (1993). The labeled platelets were then re-gel filtered to remove any excess probe. Aliquots of the labeled platelet suspension were transferred into a quartz cuvette with a magnetic stirrer, which was then placed in a thermostatically controlled chamber at 37° C. in a fluorescence spectrophotometer (Dual Wave Length Shimazdu SP5000 Spectrofluorometer, Shimazdu USA, Pittsburgh, Pa.). Reagents were directly added to the cuvette. The excitation wave lengths varied between 340 and 380 nm. The fluorescence was measured by recording emitted light at 510 nm as reported by Fisher et al, Mol. Pharm. 35, 195 (1989). The minimum emission was determined on a 20 mM digitonin, 10 mM EGTA solubilized platelet sample; maximum emission was determined on the same sample with 10 mM Ca^2+ added. The intraplatelet free Ca^2+ concentration was calculated by the method of Grykiewicz et al., J. Biol. Chem. 260, 3440 (1985). The ratio of the fluorescence readings was calculated as R=340/380 nm and processed according to the equation [Ca^2+ ]i =KD ((R-Rmin)/Rmax -R))(Sf2 /Sb2) to determine the intraplatelet free Ca^2+ concentration. The KD for fura-2 was assumed to be 224 nM. Rmax and Rmin are the maximum and minimum fluorescence ratios measured at the end of the experiment, respectively; Sf2 and Sb2 are the fluorescence values at 380 nm in the absence and presence of saturating [Ca^2+ ], respectively.

[3] = washed platelets, α-thrombin 1 nM, read-out: IC50 AGGREGATION (inhibition of α-thrombin-induced platelet aggregation)
[4] = washed platelets, α-thrombin 1 nM, read-out: IC50 SECRETION (inhibition of α-thrombin-induced platelet secretion)
[5] = aggregation and secretion not distinguished, read-out: IC50, inhibition of α-thrombin-induced platelet activation

IC50 (platelets; [3]): 850 µM
IC50 (platelets; [4]): > 2000 µM
Compound: SEQ ID NO:8: BK analog that encompasses all or a portion of the native BK sequence (GFSPFRSSRIG)
inhibition of 125I-α-thrombin binding to platelets (washed platelets): did not block

Compound: SEQ ID NO:9: scrambled peptide having the amino acids of SEQ ID NO:19 (GPFPR) [reference compound]
inhibition of aggregation (platelets): did not inhibit
inhibition of secretion (platelets): did not inhibit

Compound: SEQ ID NO:5: scrambled peptide having the amino acids of SEQ ID NO:19 (FPRPG) [reference compound]
inhibition of aggregation (platelets): did not inhibit
inhibition of secretion (platelets): did not inhibit

IC50 (platelets; [5]): ≥ 2000 µM
IC50 (platelets; [3]): 2000 µM
IC50 (platelets; [4]): > 2000 µM
Compound: SEQ ID NO:7: BK analog of the mid or carboxy terminal regions of BK (FSPFRSS)

Compound: RPPGF [SEQ ID NO:19, Arg-Pro-Pro-Gly-Phe]
effect of ligating renal arteries on half-life ([1]; Rabbit 2, renal arteries ligated): did not lengthen the half-life
half-life of antigen clearance in plasma ([1]; single iv bolus): 6.6 min
peak plasma concentration after infusion ([1]; single iv bolus, two minutes after infusion): 0.120 mM
peak plasma concentration after infusion ([1]; single iv bolus, two of three rabbits, ELISA): 60 µg/mL
bleeding at the surgical sites of cutdowns and intubations [2]: no abnormal bleeding
blood pressure [2]: remained stable
platelet count [2]: remained stable
pulse [2]: remained stable
unfavorable effects following the bolus injection [2]: No unfavorable effects were observed
cleavage product peak 2, share of non-treated NAT12 peak area (α-thrombin): 26%
cleavage product peak 3, share of non-treated NAT12 peak area (α-thrombin): 31%
reduction of NAT12 peak 1 area after α-thrombin (α-thrombin; one hour 37° C.): 57%

Compound: Arg-Pro-Pro-Gly (RPPG) [SEQ ID NO:20]
inhibition of aggregation (platelets): 95%
inhibition of secretion (platelets): 25%

IC50 (platelets; [5]): ≥ 2000 µM
IC50 (platelets; [3]): > 3000 µM
IC50 (platelets; [4]): > 2000 µM
Compound: SEQ ID NO:16: BK analog of the mid or carboxy terminal regions of BK (PPGFSP)

IC50 (human platelets): 300 µM
Compound: CC[C@H](C)[C@H](NC(=O)[C@H](CCCNC(=N)N)NC(=O)[C@H](CO)NC(=O)[C@H](CO)NC(=O)[C@H](CCCNC(=N)N)NC(=O)[C@H](Cc1ccccc1)NC(=O)[C@@H]1CCCN1C(=O)[C@H](CO)NC(=O)[C@H](Cc1ccccc1)NC(=O)CNC(=O)[C@@H]1CCCN1C(=O)[C@@H]1CCCN1C(=O)[C@H](CCCNC(=N)N)NC(=O)[C@H](CCCCN)NC(=O)[C@@H](N)CCSC)C(=O)NCC(=O)O [SEQ ID NO:14]

Compound: SEQ ID NO:6: scrambled peptide having the same amino acid count as SEQ ID NO: 14 (FSGPKRSPIMGRPSFR) [reference compound]
inhibition of aggregation (platelets): 26%
inhibition of secretion (platelets): 8%
